This test has as its system Staphylococcus aureus. The test can be described thus: Microbial antiadhesion test on reconstructed epidermis. It counts as cell-based. How it is done:
Before bacterial adhesion, the reconstructed epidermis is placed in contact for 2 hours with the composition of Example 1 at 37° C. 1 ml of bacterial suspension of Staphylococcus aureus at a concentration of 10^7 microorganisms/ml in Tryptone salt is then added thereto. After incubation for 24 hours at 37° C., the bacterial suspension is emptied out and five rinsings are performed with 1 ml of sterile distilled water. The reconstructed epidermis detached from its support is then ground using a processor in 18 ml of Tryptone salt. […] The adherent and viable cells are then counted. […]
A mixture of bacteria/test product, in the same ratio as in the antiadhesion test, is brought into contact for 24 hours at 37° C. The microorganisms are counted by tenfold dilution in Tryptone salt and inoculation, using a scraper, of 100 μl on Trypticase soybean agar. The colonies are counted after incubation for 24 hours at 37° C.
The quantitative results correspond to a reduction in the decimal logarithm of the mean number of viable Staphylococcus aureus adherent on the reconstructed epidermis after treatment with the test composition or test molecules, relative to the decimal logarithm of the mean number of viable Staphylococcus aureus adherent on the reconstructed epidermis after treating with water under the same conditions. […]

Consider 1 compound from patent US20050131077A1, “Preventing or reducing the adhesion of microorganisms with phytanetriol” (priority 2003, published 2005).

For `CC(C)CCCC(C)CCCC(C)CCCC(C)(O)C(O)CO` (centres unmarked) [Pure phytanetriol, 3,7,11,15-tetramethyl-1,2,3-hexadecanetriol], the “Activity Antiadhesion, Quantitative results: reduction in the decimal logarithm of the mean number of viable Staphylococcus aureus adherent on the reconstructed epidermis relative to water” value (reconstructed epidermis pretreated 2 hours at 37° C., S. aureus 10^7 microorganisms/ml, incubation 24 hours at 37° C., relative to treatment with water, significant if difference greater than 0.5 log) is recorded as −1.9 log. Where the note is “term as a function of Log reduction of adhesion after 24 hours relative to the same test using water”, the “Activity Antiadhesion, Qualitative results” value was “Good (between 1.5 and 2 log reduction relative to water)”.
